According to PMC5107916, “Quantitative fluorescence spectroscopy and flow cytometry analyses of cell-penetrating peptides internalization pathways: optimization, pitfalls, comparison with mass spectrometry quantification” (Scientific Reports, 2016):
Like-named read-outs stand apart in the source and are kept apart here.

Tests used:
[1] = tested on: Wild type Chinese Hamster Ovary CHO-K1 cells (WT); test: Fluorometry quantification of internalized CF-peptide in cell lysates; assay type: cell-based; details: for 4 °C - INTERNALIZED, WT (FLUOROMETRY) / 37 °C - INTERNALIZED, WT (FLUOROMETRY): fluorometry of lysate (50 mM Tris pH 7.4, 1 M NaCl, 1% NP40, sonicated), ex 494 nm, calibration curve, 10^6 cells, 7.5 μM peptide in DMEM, 60 min, mean ± spread, n in cell; for 4 °C - INTERNALIZED, WT (FLUOROMETRY): 4 °C (translocation only), 0.05% pronase digestion; for 37 °C - INTERNALIZED, WT (FLUOROMETRY): 0.05% trypsin/EDTA digestion, μM from 1 pL cell volume
Description: (§1) To quantify CPP internalization in cells, we kept the conditions of sample preparation for the measurement of the quantity of internalized and cell-associated (membrane-bound plus internalized) fluorescent peptides previously optimized for a MALDI-TOF MS based protocol, and illustrated in Fig. 3. Briefly, one million adherent cells were incubated with CF-CPP for the indicated time and temperature. […] Cells were then washed, lysed, sonicated and the lysate was cleared by centrifugation. The amount of internalized peptide was quantified by direct measurement of the fluorescence remaining in the supernatant. To evaluate the quantity of cell-associated (membrane-bound and internalized) peptide, the proteolytic step was omitted. A calibration curve was fitted from the fluorescence intensity of definite amounts of the same peptide in cell lysates ran in parallel for each experiment (Fig. 3). Comparison of the fluorescence intensity between the samples and the calibration curve permitted the absolute quantification of internalized and cell-associated peptides.
(§2) Figure 4 Quantification by fluorometry of (A) internalized and (B) membrane-bound CF-Penetratin in WT, GAG^deficient and SA^deficient CHO cells. One million cells were incubated with 2.5 or 7.5 μM CF-Penetratin in DMEM for 60 min at 37 °C or 4 °C. To measure the total cell-associated peptide (membrane-bound plus internalized), cells were washed and lysed in a buffer (50 mM Tris pH 7.4, 1 M NaCl, 1% Nonidet P40), sonicated and centrifuged 10 min at 16,000 g. To obtain the internalized peptide, the membrane-bound peptide was digested with 0.05% trypsin/EDTA (37 °C) or pronase (4 °C). After washes, cells were lysed, sonicated and centrifuged. To calculate the amount of internalized and membrane bound cell peptide, we compare the fluorescence intensity (excitation at 494 nm) to the calibration curve obtained from parallel experiments (see Fig. 3). Error bars correspond to standard errors obtained from n = 4 independent experiments for each experimental condition. Intracellular concentrations (μM) were calculated from the mean volume of one CHO cell (assimilated to a sphere of 10–15 μm diameter) being 1 pL: picomoles in 1 μL (10^6 cells) thus correspond to μM concentrations.
(§3) Wild type Chinese Hamster Ovary CHO-K1 cells (WT), xylose-transferase- or GAG-deficient CHO-pgsA745 cells (GAG^deficient) and sialic acid deficient CHO-lec2 cells (SA^deficient) (ATCC, LGC Standards S.a.r.l. - France) were cultured in F12 growth medium (DMEM-F12) supplemented with 10% fetal calf serum (FCS), penicillin (100,000 IU/L), streptomycin (100,000 IU/L), and amphotericin B (1 mg/L) in a humidified atmosphere containing 5% CO2 at 37 °C.
(§4) One million cells were incubated one hour at 37 °C or 4 °C with CF-Penetratin (2.5 μM and 7.5 μM), Biotin-(CF)Penetratin, CF-Arg9 and CF-TAT (7.5 μM) in 1 mL DMEM.
(§5) To access internalized peptides, after washing cells with HBSS, (0.05%) 500 μL trypsin/EDTA (37 °C, 5 min) or (0.05%) pronase (4 °C, 10 min) was added for 5 min to hydrolyze the remaining extracellular and the membrane-bound peptide and to detach cells. After addition of enzyme inhibitors (100 μL (one Complete Mini tablet, Roche, in 2.5 mL PBS) mixed with 100 μL bovine serum albumin (1 mg/mL), cells were transferred into a microtube, centrifuged, washed with 1 mL 50 mM Tris buffer pH 7.4, 0.1% BSA, and lysed in 200 μL 50 mM Tris pH 7.4, 1 M NaCl, 1% NP40. The samples were then sonicated for 30 min and centrifuged 10 min at 16,000 g.
(§6) To obtain the value of the total cell-associated peptide (internalized and membrane-bound species), after washing cells with HBSS, cells were directly lysed in 50 mM Tris pH 7.4, 1 M NaCl, 1% NP40. The samples were then sonicated for 30 min and centrifuged 10 min at 16,000 g.

CHO cells [2] = test: Cytotoxicity, Cell Counting Kit 8 (CCK-8); assay type: cell-based, Chinese Hamster; details: 2 × 10^4 CHO cells/well, peptide 1; 5; 10 and 20 μM, 60 min, then 3 h 10% CCK-8, absorbance 450 nm
Description: Cytotoxicity was determined with the Cell Counting Kit 8 (CCK-8) from Dojindo Molecular Technologies. This colorimetric assay allows to measure the viability of cells. 96-well plates were inoculated with 100 μL/well of a suspension of CHO cells (2.10^4 cells/well). […] After washing, the cells were incubated with 100 μL of 10% CCK-8 in DMEM for 3 hours and the absorbance was measured at 450 nm with a microplate reader (Polarstar Optima). Controls corresponded to untreated cells (negative control, 100% viability) and cells treated with 0.2% of Triton X-100 (positive control, 0% viability). Supplementary Figure S1. […] A 96-well plate was inoculated with 100 µL/well of a suspension of CHO cells (2 × 10^4 cells/well). […] Controls corresponded to untreated cells (negative control, 100% viability) and cells treated with 0.2% of Triton X-100 (positive control, 0% viability).

[3] = tested on: sialic acid deficient CHO-lec2 cells (SA^deficient); details: fluorometry of lysate (50 mM Tris pH 7.4, 1 M NaCl, 1% NP40, sonicated), ex 494 nm, calibration curve, 10^6 cells, 7.5 μM peptide in DMEM, 60 min, mean ± spread, n in cell; for 37 °C - INTERNALIZED, SA^deficient (FLUOROMETRY): trypsin digestion; for 4 °C - INTERNALIZED, SA^deficient (FLUOROMETRY): pronase digestion
Description: as §1, §2, §3, §4, §5, §6

[4] = tested on: GAG-deficient CHO-pgsA745 cells (GAG^deficient); details: fluorometry of lysate (50 mM Tris pH 7.4, 1 M NaCl, 1% NP40, sonicated), ex 494 nm, calibration curve, 10^6 cells, 7.5 μM peptide in DMEM, 60 min, mean ± spread, n in cell; for 37 °C - INTERNALIZED, GAG^deficient (FLUOROMETRY): trypsin digestion; for 4 °C - INTERNALIZED, GAG^deficient (FLUOROMETRY): pronase digestion
Description: as §1, §2, §3, §4, §5, §6

[5] = tested on: Wild type Chinese Hamster Ovary CHO-K1 cells (WT); details: 7.5 μM extracellular peptide
Description: as §1, §3
(§7) The protocol has been fully described elsewhere by Burlina et al.[14][16]. Briefly, one million adherent cells were incubated one hour with biotin-labeled peptides (^1H-CPP). After washing with HBSS, 0.05% trypsin/EDTA (37 °C, 5 min) or 0.05% pronase (4 °C, 10 min) digestion, cells were lysed in a solution containing a relevant quantity of the deuterated form (^2H-CPP) of the same peptide sequence, which is used as internal standard to quantify the internalized amount of ^1H-CPP. MALDI-TOF MS analyses were done using cyano-4-hydroxy-cinnamic acid (CHCA), for Biotin-Penetratin or sinapinic acid for Biotin-(CF)Penetratin. Unless indicated, experiments were performed in triplicates and repeated at least three times independently.

[6] = tested on: GAG-deficient CHO-pgsA745 cells (GAG^deficient); details: MALDI-TOF MS (sinapinic acid matrix), 2H-peptide internal standard, 10^6 adherent cells, 7.5 μM extracellular peptide, 1 h, trypsin digestion
Description: as §1, §3, §7

[7] = tested on: Wild type Chinese Hamster Ovary CHO-K1 cells (WT); details: MALDI-TOF MS of lysate, 2H-peptide internal standard, 10^6 adherent cells, 7.5 μM extracellular peptide, 1 h, ref [19], cited from earlier work
[8] = tested on: sialic acid deficient CHO-lec2 cells (SA^deficient); details: MALDI-TOF MS of lysate, 2H-peptide internal standard, 10^6 adherent cells, 7.5 μM extracellular peptide, 1 h, ref [19], cited from earlier work
[9] = tested on: GAG-deficient CHO-pgsA745 cells (GAG^deficient); details: MALDI-TOF MS of lysate, 2H-peptide internal standard, 10^6 adherent cells, 7.5 μM extracellular peptide, 1 h, ref [19], cited from earlier work
CHO cells [10] = tested on: CHO cells
Description: We examined the impact of the concentration of Trypan Blue on cell-associated fluorescence compared to control conditions in the absence of Trypan Blue. Cells were incubated with CF-Penetratin. After washings, different concentrations of Trypan Blue were added before cytometry analysis. […] We next examined the quenching ability of Trypan Blue on increasing CF-Penetratin concentrations.
Figure 7 Quenching assays of membrane-bound fluorescence for flow cytometry internalization quantification. (A) Fluorescence quenching according to Trypan Blue quantity (% in g for 100 mL). […] After washing with cold PBS, cells were analyzed in the absence or the presence of Trypan Blue. Lower panel: Stern-Volmer plot. (B) Quenching of membrane fluorescence was assayed with various experimental conditions: 0.2% Trypan Blue, 0.01% trypsin (5 min, 37 °C), 0.5 mg/mL heparin (3 times 5 min, 37 °C). 20,000 events were recorded for each experimental condition. Data were normalized to 100% fluorescence in the absence of Trypan Blue.
Cells were dissociated with 0.5 mM EDTA in PBS (5 min at 37 °C), centrifuged at 800 g, and suspended in DMEM culture medium. […] To optimize fluorescence quenching of the membrane-bound fluorescein, the cell suspension was treated with different concentrations of Trypan Blue. […] 20,000 events were recorded for every experimental conditions.

[11] = 37 °C, trypsin digestion, μM from 1 pL cell volume

## Biotin-GGGG(εCF)KRQIKIWFQNRRMKWKK-NH2 [Biotin-(CF)PEN]
[1]
  4 °C - INTERNALIZED, WT (FLUOROMETRY): 1.5 ± 0.1 (n = 10) μM
  37 °C - INTERNALIZED, WT (FLUOROMETRY): 9.8 ±1.0 (n = 14) μM
CHO cells [2]
  cytotoxicity (cell viability, CCK-8): none of the peptides used in this study was cytotoxic
[3]
  37 °C - INTERNALIZED, SA^deficient (FLUOROMETRY): 6.9 ± 1.8 (n = 3) μM
[4]
  37 °C - INTERNALIZED, GAG^deficient (FLUOROMETRY): 1.1 ± 0.1 (n = 4) μM
[5]; MALDI-TOF MS (sinapinic acid matrix), 2H-peptide internal standard, 10^6 adherent cells, 1 h, 4 °C, pronase digestion
  4 °C - INTERNALIZED, WT (MALDI-TOF MS): Not detectable
[5]; MALDI-TOF MS (sinapinic acid matrix), 2H-peptide internal standard, 10^6 adherent cells, 1 h, 37 °C, trypsin digestion, μM from 1 pL cell volume, mean ± spread, n in cell
  37 °C - INTERNALIZED, WT (MALDI-TOF MS): 8.7 ± 1.1 (n = 19) μM
[5]; MALDI-TOF MS of cell lysate, one-hour incubation, 37 °C
  intracellular degradation of the internalized peptide, from mass spectra: not quickly degraded
[6]
  37 °C - INTERNALIZED, GAG^deficient (MALDI-TOF MS): Not detectable

## Biotin-GGGGRQIKIWFQNRRMKWKK-NH2 [Biotin-PEN]
[7]; 4 °C (translocation only), 0.05% pronase digestion
  4 °C - INTERNALIZED, WT (MALDI-TOF MS): 0.9 ± 0.2 µM
[7]; 37 °C, membrane-bound peptide digested with 0.05% trypsin/EDTA, μM from 1 pL cell volume
  37 °C - INTERNALIZED, WT (MALDI-TOF MS): 5.0 ± 0.5 µM
[8]; 4 °C, pronase digestion
  4 °C - INTERNALIZED, SA^deficient (MALDI-TOF MS): 1.0 ± 0.2 µM
[8]; [11]
  37 °C - INTERNALIZED, SA^deficient (MALDI-TOF MS): 6.0 ± 1.0 µM
[9]; 4 °C, pronase digestion
  4 °C - INTERNALIZED, GAG^deficient (MALDI-TOF MS): 0.6 ± 0.1 µM
[9]; [11]
  37 °C - INTERNALIZED, GAG^deficient (MALDI-TOF MS): 1.9 ± 0.2 µM

## Carboxyfluorescein-Apa-RQIKIWFQNRRMKWKK-NH2 [CF-PEN]
[1]
  4 °C - INTERNALIZED, WT (FLUOROMETRY): 2.4 ± 0.4 (n = 3) μM
  37 °C - INTERNALIZED, WT (FLUOROMETRY): 22 ± 1.3 (n = 11) μM
[1]; listed as CF-Penetratin
  4 °C - INTERNALIZED, WT (FLUOROMETRY): 1 to 2 µM
[1]; fluorometry of lysates, cell line not given
  ratio of total cell-associated to internalized peptide by fluorometry: ~100 folds
[3]
  4 °C - INTERNALIZED, SA^deficient (FLUOROMETRY): 1.0 ± 0.1 (n = 4) μM
  37 °C - INTERNALIZED, SA^deficient (FLUOROMETRY): 33 ± 5.3 (n = 4) μM
[3]; listed as CF-Penetratin
  4 °C - INTERNALIZED, SA^deficient (FLUOROMETRY): 1 to 2 µM
[4]
  4 °C - INTERNALIZED, GAG^deficient (FLUOROMETRY): 1.7 ± 0.8 (n = 3) μM
  37 °C - INTERNALIZED, GAG^deficient (FLUOROMETRY): 7.0 ± 0.5 (n = 4) μM
[4]; listed as CF-Penetratin
  4 °C - INTERNALIZED, GAG^deficient (FLUOROMETRY): 1 to 2 µM
CHO cells [10]
  difference between total cell-associated and internalized fluorescence signals by flow cytometry: 1.25 to 2 folds
